{"source": "paper PMC11054638", "about": "“Transport of Non-Steroidal Anti-Inflammatory Drugs across an Oral Mucosa Epithelium In Vitro Model” (Pharmaceutics, 2024)", "key": {"[1]": {"details": "after oral administration of 200 mg ref 52, 53; cited from earlier work"}, "[2]": {"system": "JAK1, TRAF2 and RELA mRNA in TR146 cells", "experiment": "qPCR of JAK1, TRAF2 and RELA after inflammation study", "format": "cell-based, human", "details": "48 h", "description": "® were seeded with cells as described above. […] Prior to treating cells with prepared DMEM solutions, TEER was measured in cultivation media DMEM supplemented with 1% Penicillin/Streptomycin and 10% Fetal Calf Serum. Subsequently, cell layers and blanks were washed with DMEM (without supplements) twice on the apical and basolateral compartment, followed by TEER measurements in DMEM. Media of cells were replaced with previously prepared DMEM solutions. Control media was applied on the blanks. After 48 h treatment at 37 °C, 5% CO2 and 95% humidity TEER was measured. […] Media were immediately collected and measured for the RFU content using the EnSpire as described above. Afterwards, media were stored at -20 °C until further usage. […] For qPCR, samples were analysed as triplicates using the LightCycler480 II (Roche) with the program described in Lin et al. with primers for 18SrRNA (5'-3' forward: [NT], 5'-3' reverse: [NT], Janus Kinase 1 transcript variant a (JAK1tva) (5'-3' forward: [NT], 5'-3' reverse: [NT], JAK1tvb (5'-3' forward: [NT], 5'-3' reverse: [NT], JAK1tvc (5'-3' forward: [NT], 5'-3' reverse: [NT] Receptor Associated Factor 2 (TRAF2) tvb (5'-3' forward: [NT], 5'-3' reverse: […]2tvc (5'-3' forward: [NT], 5'-3' reverse: [NT] and nuclear factor κB (NF-κB) RelA (forward 5'-3': [NT], reverse 5'-3': […]"}}, "data": [{"smiles": "CC(C)Cc1ccc(C(C)C(=O)O)cc1", "note": "(stereo not drawn) [ibuprofen]", "values": [{"measurement": "plasma concentration", "setting": "[1]", "value": "116 to 142.5", "unit": "µM"}, {"measurement": "RELA mRNA expression", "setting": "[2]; 100 µM ibuprofen with inflammatory cytokines, p < 0.05", "value": "inhibit the increase in RELA"}, {"measurement": "JAK1 and TRAF2 mRNA expression", "setting": "[2]; cytokines 100 ng/mL each, ibuprofen 100 µM added during inflammation", "value": "did not block the upregulation"}]}]}
